# Laboratory results: patent publication US10317393B2, “Alkynyl sugar analogs for labeling and visualization of glycoconjugates in cells” (Academia Sinica, priority 2007, dated 2019)
# Experiments:
# cell extracts = experiment: Labeling and detection of glycoconjugates in cell extracts (SDS/PAGE, Western blot); type: cell-based; settings: 200 micromolar Fuc or 25 micromolar ManNAc analogs, 3 days
# Source text: Because the herein disclosed labeling system enables the identification of cellular glycoconjugates, it can also serve well in glyco-proteomic applications aimed at discovering unknown glycosylated targets for diagnostic and therapeutic purposes. […] Soluble lysate fractions are labeled with biotin probe 6, fluorogenic probe 7, or a standard azido-derivatized rhodamine probe used in proteomics before separating proteins by SDS/PAGE. […] Positive fluorescent signal was also detected in alkynyl positive protein lysate when labeled with fluorogenic 3-azido-7-hydroxycoumarin 7 and rhodamine probes (FIG. 6B and FIG. 11). […] Moreover, further processing, including a streptavidin/avidin enrichment or gel slice purification, will allow for comparative identification by proteomic mass spectrometry techniques of unknown glycoconjugates expressed at different cell status, for instance, un-differentiated verses differentiated cells, or normal verses cancer cells.
# Cells were seeded at 3×10^6/8 ml per 10-cm dish and treated with control and test sugars (200 micromolar Fuc 3 vs. alkynyl derivatized Fuc 1, or 25 micromolar ManNAc 5 vs. alkynyl derivatized ManNAc 2) in growth medium at 37° C. […] Signal was developed with SuperSignal Chemiluminescent Substrate and detected by exposure to x-ray film. […] Rhodamine gels were analyzed.
# PC-3 cells = experiment: Lectin staining of tagged cells, flow cytometry; type: cell-based; settings: 200 micromolar, three days
# Protocol: FIGS. 9A and 9B show lectin staining of alkynyl-derivatized Fuc 1-tagged PC-3 prostate cancer cells. Cells were treated with 200 micromolar derivatized alkynyl-derivatized Fuc 1, or Fuc 3, or left untreated. After three days, cells were labeled with biotin-conjugated AAL/fluorescein-conjugated streptavidin shown in FIG. 9A or fluorescein-conjugated UEA-I shown in FIG. 9B. Fluorescent signal was detected by flow cytometry. AAL was used to detect α-1,6- or α-1,3-linked Fuc; UEA-I was used to detect α-1,2-linked Fuc. Filled histogram: untreated cells without lectin stain; open histogram c: untreated cells stained with lectin; open histogram b: control Fuc 3-treated cells stained with lectin; open histogram a: alkynyl-derivatized Fuc 1-treated cells stained with lectin. AAL, Aleuria Aurantia Lectin; UEA-1, Ulex Europaeus Agglutinin I.
# PC-3 cells were grown in RPMI 1640 (Invitrogen) supplemented with 10% FCS and peracetylated alkynyl Fuc 1 or control Fuc 3 for 3 days at 37° C. Cells were then harvested, washed with 1% FCS/PBS, resuspended (5×10^5 cells) in 100 μl of staining solution (1 μg/ml lectin conjugates in 1% FCS/PBS). Cells were then incubated on ice for 30 min and washed twice with 1% FCS/PBS. […] Data were acquired by FACSCalibur, and were analyzed by CellQuestPro software (BD Biosciences).
# H. pylori = experiment: Labeling and detection of fucosylated glycoconjugates in H. pylori (immunoprecipitation, SDS-PAGE, protein blot); type: cell-based, Helicobacter pylori
# Protocol: Representative H. pylori strains isolated from human gastric biopsy specimens, including gastritis (HS), duodenal ulcer (HD), gastric ulcer (HU) and gastric cancer (HC), were subjected to MOE: all the strains were grown on CDC agar plate supplemented with 200 micromolar derivatized alkynyl Fuc 1 for two days under micro-aerobic atmosphere (5% O2, 15% CO2, 80% N2). […] Immunoprecipitates were then analyzed by SDS-PAGE and stained for visualization. […]
# Protein extracts were prepared in lysis buffer (1% NP-40, 150 mM NaCl, 100 mM sodium phosphate pH 7.5, 1×EDTA-free protease inhibitor cocktail) and labeled with biotin probe 6 (protein 1 mg/ml with 0.1 mM azido biotin 6/0.1 mM Tris-thiazoleamine catalyst/1 mM CuSO4/2 mM sodium ascorbate in lysis buffer) via cycloaddition at room temperature for 1 h. […] Immunoprecipitates were then analyzed by SDS-PAGE and stained for visualization. […]
# Detection of CagA on protein blots: Protein extracted from control or alkynyl Fuc 1 analog-treated HC samples were subjected to cycloaddition labeling to label with biotin probe (protein 1 mg/ml with 0.1 mM azido biotin 6/0.1 mM Tris-thiazoleamine catalyst/1 mM CuSO4/2 mM sodium ascorbate in lysis buffer), followed by immunoprecipitation with anti-CagA antibody (Santa Cruz). The derivatized alkynyl Fuc tags/biotin labeling on CagA protein were detected by peroxidase-conjugated streptavidin on protein blot.
substance,measurement,setting,value
"1,2,3,4-tetraacetyl alkynyl fucose [alkynyl Fuc 1]",labeling signal in proteins by Western blot or fluorescence,cell extracts,specific biotin-labeling signals
same,binding of Ulex Europaeus Agglutinin I (UEA-1) to treated cells versus control,PC-3 cells,significantly lower avidity
same,binding of aleuria aurantia lectin to treated cells versus control,PC-3 cells,significantly lower avidity
same,tagged fucosyl proteins isolated by anti-biotin immunoprecipitation,"H. pylori; 200 micromolar, two days, strains HS, HD, HU, HC",several proteins were detected
same,biotinylated Fuc tags on CagA protein (protein blot),"H. pylori; HC strain, anti-CagA immunoprecipitation",specific signal is only detected in MOE-tagged HC strain
